{
  "source": "ChEMBL document CHEMBL2346599",
  "about": "“Rational design and binding mode duality of MDM2-p53 inhibitors” (J Med Chem, 2013)",
  "key": {"[1]": {"test": "Drug uptake in tumor of athymic nude mouse xenografted with human SJSA1 cells at 30 mg/kg, po qd after 7 hrs", "format": "ADME, organism-based, Neoplasm, SJSA-1", "parameters": "dose 30 mg/kg, route oral", "conditions": "read-out: Drug uptake"}, "[2]": {"test": "AUC in athymic nude mouse at 5 mg/kg, po", "format": "ADME, organism-based", "parameters": "dose 5 mg/kg, route oral", "conditions": "plasma"}, "[3]": {"test": "Fraction unbound in human plasma", "format": "ADME, cell-free"}, "Protein Mdm4": {"biological_target": "T1, Protein Mdm4 (Homo sapiens, UniProt O15151)", "T1 sequence (O15151 whole entry)": "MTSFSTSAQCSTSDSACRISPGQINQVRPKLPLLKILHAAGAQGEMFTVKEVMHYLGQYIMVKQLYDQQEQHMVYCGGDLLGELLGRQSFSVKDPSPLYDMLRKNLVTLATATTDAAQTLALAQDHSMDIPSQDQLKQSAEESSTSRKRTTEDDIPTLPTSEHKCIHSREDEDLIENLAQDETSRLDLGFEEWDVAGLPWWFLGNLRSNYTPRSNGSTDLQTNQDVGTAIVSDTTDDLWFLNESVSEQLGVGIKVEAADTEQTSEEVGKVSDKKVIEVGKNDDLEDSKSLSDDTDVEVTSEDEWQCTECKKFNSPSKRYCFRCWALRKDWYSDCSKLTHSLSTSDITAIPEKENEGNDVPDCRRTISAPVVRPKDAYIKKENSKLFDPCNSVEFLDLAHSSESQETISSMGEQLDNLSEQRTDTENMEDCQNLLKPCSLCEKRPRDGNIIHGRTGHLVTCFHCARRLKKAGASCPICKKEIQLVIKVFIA", "test": "Binding affinity to MDMX (unknown origin) after 20 mins by HTRF assay"}, "[4]": {"test": "Oral bioavailability in athymic nude mouse at 5 mg/kg", "format": "ADME, organism-based", "conditions": "in vivo"}, "Mus musculus": {"species_on_record": "Mus musculus", "conditions": "SJSA-1, 30 to 100 mg/kg", "description": "In vivo inhibition of MDM2 in human SJSA1 cells xenografted in athymic nude mouse assessed as upregulation of p21 mRNA level at 30 to 100 mg/kg, po qd after 7 hrs by qRT-PCR analysis"}, "[5]": {"test": "Volume of distribution at steady state in athymic nude mouse at 1 mg/kg, iv", "format": "ADME, organism-based", "parameters": "dose 1 mg/kg, route intravenous", "conditions": "in vivo, read-out: Vdss"}, "[6]": {"test": "Clearance in athymic nude mouse at 1 mg/kg, iv", "format": "ADME, organism-based", "parameters": "dose 1 mg/kg, route intravenous", "conditions": "in vivo"}, "[7]": {"test": "Fraction unbound in mouse plasma", "format": "ADME, cell-free"}, "[8]": {"test": "Fraction unbound in rat plasma", "format": "ADME, cell-free"}, "[9]": {"test": "Half life in athymic nude mouse at 1 mg/kg, iv", "format": "ADME, organism-based", "parameters": "dose 1 mg/kg, route intravenous", "conditions": "in vivo"}, "[10]": {"test": "Drug uptake in tumor of athymic nude mouse xenografted with human SJSA1 cells at 300 mg/kg, po qd after 7 hrs", "format": "ADME, organism-based, Neoplasm, SJSA-1", "parameters": "dose 300 mg/kg, route oral", "conditions": "read-out: Drug uptake"}, "[11]": {"test": "Drug uptake in tumor of athymic nude mouse xenografted with human SJSA1 cells at 100 mg/kg, po qd after 7 hrs", "format": "ADME, organism-based, Neoplasm, SJSA-1", "parameters": "dose 100 mg/kg, route oral", "conditions": "read-out: Drug uptake"}, "[12]": {"test": "Plasma concentration in athymic nude mouse xenografted with human SJSA1 cells at 300 mg/kg, po qd after 7 hrs", "format": "ADME, organism-based, SJSA-1", "parameters": "dose 300 mg/kg, route oral"}, "[13]": {"biological_target": "T2, E3 ubiquitin-protein ligase Mdm2 (Homo sapiens, UniProt Q00987)", "T2 sequence (Q00987 whole entry)": "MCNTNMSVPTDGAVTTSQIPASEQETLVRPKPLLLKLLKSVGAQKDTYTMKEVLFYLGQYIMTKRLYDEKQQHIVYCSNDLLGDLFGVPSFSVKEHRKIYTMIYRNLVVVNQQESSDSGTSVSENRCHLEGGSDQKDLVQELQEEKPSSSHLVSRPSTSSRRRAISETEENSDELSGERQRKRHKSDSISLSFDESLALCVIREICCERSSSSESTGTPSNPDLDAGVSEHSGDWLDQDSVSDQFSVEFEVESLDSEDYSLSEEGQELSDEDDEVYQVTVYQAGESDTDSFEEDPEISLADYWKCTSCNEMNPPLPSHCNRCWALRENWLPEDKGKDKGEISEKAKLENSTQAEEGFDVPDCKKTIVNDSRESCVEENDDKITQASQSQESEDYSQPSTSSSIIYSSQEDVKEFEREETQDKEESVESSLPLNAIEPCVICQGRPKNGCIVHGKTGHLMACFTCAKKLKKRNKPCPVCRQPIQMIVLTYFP", "test": "Inhibition of human recombinant GST-thrombin-MDM2 (1 to 188) expressed in Escherichia coli assessed as reduction of MDM2-p53 interaction incubated for 20 mins followed by p53 addition measured after 60 mins by HTRF assay"}, "[14]": {"biological_target": "T2, E3 ubiquitin-protein ligase Mdm2", "test": "Inhibition of human recombinant GST-thrombin-MDM2 (1 to 188) expressed in Escherichia coli assessed as reduction of MDM2-p53 interaction incubated for 20 mins followed by p53 addition measured after 60 mins by HTRF assay in presence of 15% serum"}},
  "note": "Active and inactive are the calls of the source. No cut-off for these calls is given here.",
  "data": [
    {"smiles": "O=C(O)C[C@@H]1O[C@@H](c2cccc(Cl)c2)[C@@H](c2ccc(Cl)cc2)N(CC2CC2)C1=O", "values": [
      {"measurement": "concentration at 7 h", "setting": "[1]", "value": 0.3, "unit": "µM"},
      {"measurement": "AUC", "setting": "[2]", "value": 4.1, "unit": "µM·h"},
      {"measurement": "fraction unbound", "setting": "[3]", "value": 0.042},
      {"measurement": "IC50", "setting": "Protein Mdm4", "value": "> 30", "unit": "µM"},
      {"measurement": "bioavailability", "setting": "[4]", "value": 59, "unit": "%"},
      {"measurement": "inhibition", "setting": "Mus musculus", "value": "inactive"},
      {"measurement": "Vd", "setting": "[5]", "value": 3.9, "unit": "L/kg"},
      {"measurement": "clearance", "setting": "[6]", "value": 28.3, "unit": "mL/min/kg"},
      {"measurement": "fraction unbound", "setting": "[7]", "value": 0.059},
      {"measurement": "fraction unbound", "setting": "[8]", "value": 0.06},
      {"measurement": "half-life", "setting": "[9]", "value": 4.1, "unit": "h"},
      {"measurement": "concentration at 7 h", "setting": "[10]", "value": 22.9, "unit": "µM"},
      {"measurement": "concentration at 7 h", "setting": "[11]", "value": 2.1, "unit": "µM"},
      {"measurement": "concentration at 7 h", "setting": "[12]", "value": 102, "unit": "µM"}
    ]},
    {"smiles": "CC(C)(C)OC(=O)N1CC(=O)N[C@H](c2ccc(Br)cc2)[C@@H]1c1ccc(Br)cc1", "note": "(racemic)", "values": [
      {"measurement": "IC50", "setting": "[13]", "value": "> 30", "unit": "µM"}
    ]},
    {"smiles": "CN1C(=O)CO[C@@H](c2ccc(Cl)cc2)[C@H]1c1cccc(Cl)c1", "note": "(racemic)", "values": [
      {"measurement": "IC50", "setting": "[14]", "value": "> 30", "unit": "µM"},
      {"measurement": "IC50", "setting": "[13]", "value": "> 30", "unit": "µM"}
    ]},
    {"smiles": "CN1C[C@H](Cc2ccccc2)O[C@@H](c2ccc(Br)cc2)[C@H]1c1ccc(Br)cc1", "note": "(racemic)", "values": [
      {"measurement": "IC50", "setting": "[13]", "value": "> 30", "unit": "µM"}
    ]},
    {"smiles": "O=C(O)C[C@H]1C[C@H](c2cccc(Cl)c2)[C@@H](c2ccc(Cl)cc2)N(CC2CC2)C1=O", "values": [
      {"measurement": "IC50", "setting": "Protein Mdm4", "value": "> 30", "unit": "µM"}
    ]},
    {"smiles": "COc1ccc([C@H]2CC(=O)C=C(c3ccc(Cl)cc3)[C@@H]2c2ccc(Cl)cc2)cc1OC", "note": "(racemic)", "values": [
      {"measurement": "IC50", "setting": "[13]", "value": "> 30", "unit": "µM"}
    ]},
    {"smiles": "CCC[C@H](C(=O)O)N1C(=O)[C@H](Cc2ccc(F)cc2)O[C@@H](c2ccc(Cl)cc2)[C@H]1c1ccc(Cl)cc1", "values": [
      {"measurement": "IC50", "setting": "Protein Mdm4", "value": "> 30", "unit": "µM"}
    ]},
    {"smiles": "CN1C(=O)[C@H](Cc2ccccc2)O[C@@H](c2ccc(Br)cc2)[C@H]1c1ccc(Br)cc1", "values": [
      {"measurement": "IC50", "setting": "Protein Mdm4", "value": "> 30", "unit": "µM"}
    ]}
  ]
}
